{"source": "paper PMC9039622", "about": "(Frontiers in Pharmacology, 2022)", "key": {"[1]": {"test": "In vitro digestion of prodrugs by porcine pancreatin in simulated intestinal fluid (SIF)", "format": "in vitro ADME", "conditions": "for MG intermediate detected in SIF: after 30 min incubation; for half-life at 1.96 µg/ml: pig, pH 6.5, SIF with porcine pancreatin, read-out: apparent half-life of MG intermediate in SIF", "protocol": "Briefly, the lipase solution was prepared by dispersion of porcine pancreatin (10,000 IU/ml) in a lipolysis buffer (pH 6.5) containing tris-maleate (2 mM), CaCl2 (1.4 mM) and NaCl (150 mM), followed by centrifugation at 2,000 g for 15 min at 5°C to provide the lipase solution as the supernatant. To start the hydrolysis, 100 µl of the lipase solution was added to a mixture of 20 µl of prodrug solution (0.1 mg/ml dissolved in acetonitrile) and 900 µl of simulated intestinal micellar solution (3 mM of sodium taurodeoxycholate and 0.75 mM of phosphatidylcholine dispersed in lipolysis buffer). The solution was incubated at 37°C. Samples (20 µl) of the incubation solution were taken at 0, 5, 10, 15, 30, 60, 90, 120 and 180 min post incubation and added to 180 µl of acetonitrile to stop lipolysis. The mixture was vortexed and centrifuged at 4,500 g for 5 min to precipitate proteins prior to analysis. The supernatant was analysed by HPLC-MS/MS for the potential products (Figure 1) of prodrug hydrolysis as described in the Supplementary Material.\n(§1) Absolute quantification of the hydrolysis products, i.e., MG derivatives and BUP-linker-COOH forms (“acid” forms) was not attempted due to lack of authentic standards. Instead, the profiles for these species were plotted based on the peak areas obtained from HPLC-MS. […] To illustrate changes to the BUP-linker-acid forms, the relative changes were plotted as the peak areas on the right-hand Y axis in Figures 3 and 5."}, "[2]": {"test": "In vitro incubation of prodrugs with LPL supplemented rat plasma", "format": "in vitro ADME, Sprague Dawley rat", "conditions": "over 3 h", "protocol": "[…] is tethered to the luminal surface of vascular endothelial cells under physiological conditions ([Bensadoun 1991]). In the current in vitro studies, rat plasma was therefore supplemented with LPL to better reflect the in vivo situation. To start hydrolysis, 10 µl of LPL solution (10,000 IU/ml) was added to a mixture of 10 µl of prodrug solution (0.1 mg/ml dissolved in acetonitrile) and 500 µl of blank Sprague Dawley rat plasma. The solution was incubated at 37°C. Samples (20 µl) of the incubation solution were taken at 0, 5, 15, 30, 60, 90, 120 and 180 min post incubation and added to 180 µl of ACN to stop lipolysis. The mixture was vortexed and centrifuged at 4,500 g for 5 min to precipitate proteins prior to analysis.\nas §1"}, "[3]": {"parameters": "method as in earlier work", "conditions": "ref Tauber, Schroder, Dusterberg and Matthes 1986b; Shackleford et al., 2003; cited from earlier work"}}, "data": [{"smiles": "CO[C@]12CC[C@@]3(C[C@@H]1[C@](C)(O)C(C)(C)C)[C@H]1Cc4ccc(OC(=O)CCC(=O)OC(CO)CO)c5c4[C@@]3(CCN1CC1CC1)[C@H]2O5", "note": "[BUP-C4-MG]", "values": [{"measurement": "MG intermediate detected in SIF", "setting": "[1]", "result": "only trace quantities"}, {"measurement": "half-life at 1.96 µg/ml", "setting": "[1]", "result": "< 10", "unit": "min"}, {"measurement": "BUP-linker-acid form detected in plasma", "setting": "[2]", "result": "no BUP-linker-acid forms were detected"}]}, {"smiles": "CO[C@]12CC[C@@]3(C[C@@H]1[C@](C)(O)C(C)(C)C)[C@H]1Cc4ccc(OC(=O)CC(C)CC(=O)OC(CO)CO)c5c4[C@@]3(CCN1CC1CC1)[C@H]2O5", "note": "(stereo partly drawn) [BUP-C5bMe-MG]", "values": [{"measurement": "half-life at 1.96 µg/ml", "setting": "[1]", "result": "> 60", "unit": "min"}, {"measurement": "BUP-linker-acid form detected in plasma", "setting": "[2]", "result": "no BUP-linker-acid forms were detected"}]}, {"smiles": "CO[C@]12CC[C@@]3(C[C@@H]1[C@](C)(O)C(C)(C)C)[C@H]1Cc4ccc(OC(=O)CCCCOC(=O)CCC(=O)OC(CO)CO)c5c4[C@@]3(CCN1CC1CC1)[C@H]2O5", "note": "[BUP-CE-C4-MG]", "values": [{"measurement": "MG intermediate detected in SIF", "setting": "[1]", "result": "only trace quantities"}, {"measurement": "BUP-linker-acid form detected in plasma", "setting": "[2]", "result": "transiently detected"}]}, {"smiles": "CO[C@]12CC[C@@]3(C[C@@H]1[C@](C)(O)C(C)(C)C)[C@H]1Cc4ccc(OC(=O)CC(C)(C)c5c(C)cc(C)cc5OC(=O)CCC(=O)OC(CO)CO)c5c4[C@@]3(CCN1CC1CC1)[C@H]2O5", "note": "[BUP-TML-C4-MG]", "values": [{"measurement": "MG intermediate remaining in simulated GI fluids", "setting": "[1]; after 2 h", "result": "more than half"}, {"measurement": "BUP-linker-acid form detected in plasma", "setting": "[2]", "result": "no BUP-linker-acid forms were detected"}]}, {"smiles": "CO[C@]12CC[C@@]3(C[C@@H]1[C@](C)(O)C(C)(C)C)[C@H]1Cc4ccc(OC(=O)CC(C)(C)c5c(C)cc(C)cc5OC(=O)CC(C)CC(=O)OC(CO)CO)c5c4[C@@]3(CCN1CC1CC1)[C@H]2O5", "note": "(stereo partly drawn) [BUP-TML-C5bMe-MG]", "values": [{"measurement": "MG intermediate remaining in SIF", "setting": "[1]; at the end of the 3 h incubation, relative peak area", "result": "more than 80%"}, {"measurement": "BUP-linker-acid form detected in plasma", "setting": "[2]", "result": "no BUP-linker-acid forms were detected"}]}, {"smiles": "CCCCCCCCCCC(=O)O[C@H]1CC[C@H]2[C@@H]3CCC4=CC(=O)CC[C@]4(C)[C@H]3CC[C@]12C", "note": "[testosterone undecanoate]", "values": [{"measurement": "oral bioavailability for TST", "setting": "[3]", "result": "~5", "unit": "%"}]}]}
